Reference: US9708314B2, “Heterocyclic amide compound” (NISSAN CHEMICAL INDUSTRIES, LTD., priority 2013, dated 2017)

Key:
Type in all cases: in vivo
[1] = system: Echinochloa oryzacola Vasing.; experiment: Test Example 2: herbicidal activity, application during weed generation in submerged conditions; details: Eighteenth Table; application herbicide amount 320 g/ha
In short: (§1)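 Post-emergence application under submerged conditions: water-diluted emulsion dosed onto the water surface (g/ha) when weeds reach one- to two-leaf stage. Soil flooded to 4 cm; greenhouse 25–30 °C. Herbicidal ratio graded in six classes, 0 (≤5%) to 5 (≥90%), at three weeks.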

Monochoria vaginalis = experiment: as above; details: Eighteenth Table; application herbicide amount 320 g/ha
In short: as §1

Scirpus juncoides = experiment: as above; details: Eighteenth Table; application herbicide amount 320 g/ha
In short: as §1

Cyperus difformis = experiment: Test Example 3: herbicidal effect by application to foliage (Wagner pot, water depth 0.1-0.5 cm); details: Nineteenth Table; application to foliage; application herbicide amount 320 g/ha
In short: (§2)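 Wagner pot foliar test: sow, grow 14 d (25–30 °C), spray diluted emulsion at set g/ha, score after 3 wk; 0 ≤5%, 5 ≥90% herbicidal ratio.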

[2] = system: Echinochloa crus-galli var. crus-galli; experiment: as above; details: Nineteenth Table; application to foliage; application herbicide amount 320 g/ha
In short: as §2

Leptochloa chinensis = experiment: as above; details: Nineteenth Table; application to foliage; application herbicide amount 320 g/ha
In short: as §2

[3] = system: directly sowed Oryza sativa; experiment: Test Example 3: effect on crop by application to foliage (Wagner pot, water depth 0.1-0.5 cm); details: Nineteenth Table; application to foliage; application herbicide amount 320 g/ha
In short: as §2

SMILES | A (Echinochloa oryzicola Vasing.) herbicidal ratio grade [1] | C (Monochoria vaginalis) herbicidal ratio grade (Monochoria vaginalis) | B (Scirpus juncoides) herbicidal ratio grade (Scirpus juncoides) | E (herbicidal effect grade) (Cyperus difformis) | H (herbicidal effect grade) [2] | D (herbicidal effect grade) (Leptochloa chinensis) | b (effect on crop grade) [3]
COCCNc1nnc2c(C(=O)Nc3nnc(C)o3)ccc(C(F)(F)F)n12 [1-109] | 0 (Herbicidal ratio of 5% or less (almost no effect)) | 0 (Herbicidal ratio of 5% or less (almost no effect)) | 1 (Herbicidal ratio of 5% or more and less than 20%) | 3 (Herbicidal ratio of 40% or more and less than 70%) | 5 (Herbicidal ratio of 90% or more (almost completely withered)) | 5 (Herbicidal ratio of 90% or more (almost completely withered)) | 2 (Herbicidal ratio of 20% or more and less than 40%)
O=C(Nc1nnco1)c1ccc(C(F)(F)F)n2c(N3CCOCC3)nnc12 [1-110] | 4 (Herbicidal ratio of 70% or more and less than 90%) | 4 (Herbicidal ratio of 70% or more and less than 90%) | 3 (Herbicidal ratio of 40% or more and less than 70%) | 5 (Herbicidal ratio of 90% or more (almost completely withered)) | 5 (Herbicidal ratio of 90% or more (almost completely withered)) | 5 (Herbicidal ratio of 90% or more (almost completely withered)) | 5 (Herbicidal ratio of 90% or more (almost completely withered))
CCOc1nnc2c(C(=O)Nc3nnco3)ccc(C(F)(F)F)n12 [1-112] | 1 (Herbicidal ratio of 5% or more and less than 20%) | 0 (Herbicidal ratio of 5% or less (almost no effect)) | 2 (Herbicidal ratio of 20% or more and less than 40%) | 1 (Herbicidal ratio of 5% or more and less than 20%) | 3 (Herbicidal ratio of 40% or more and less than 70%) | 2 (Herbicidal ratio of 20% or more and less than 40%) | 0 (Herbicidal ratio of 5% or less (almost no effect))
Cc1nnc(NC(=O)c2ccc(C(F)(F)F)n3c(SCc4ccccc4)nnc23)o1 [1-113] | 2 (Herbicidal ratio of 20% or more and less than 40%) | 0 (Herbicidal ratio of 5% or less (almost no effect)) | 0 (Herbicidal ratio of 5% or less (almost no effect)) | 3 (Herbicidal ratio of 40% or more and less than 70%) | 4 (Herbicidal ratio of 70% or more and less than 90%) | 3 (Herbicidal ratio of 40% or more and less than 70%) | 0 (Herbicidal ratio of 5% or less (almost no effect))
COc1ccc(CSc2nnc3c(C(=O)Nc4nnc(C)o4)ccc(C(F)(F)F)n23)cc1 [1-114] | 0 (Herbicidal ratio of 5% or less (almost no effect)) | 0 (Herbicidal ratio of 5% or less (almost no effect)) | 1 (Herbicidal ratio of 5% or more and less than 20%) | 2 (Herbicidal ratio of 20% or more and less than 40%) | 4 (Herbicidal ratio of 70% or more and less than 90%) | 4 (Herbicidal ratio of 70% or more and less than 90%) | 0 (Herbicidal ratio of 5% or less (almost no effect))
Cc1nnc(NC(=O)c2ccc(C(F)(F)F)n3c(SCC4CCCO4)nnc23)o1 (centres unmarked) [1-116] | 3 (Herbicidal ratio of 40% or more and less than 70%) | 0 (Herbicidal ratio of 5% or less (almost no effect)) | 4 (Herbicidal ratio of 70% or more and less than 90%) | 0 (Herbicidal ratio of 5% or less (almost no effect)) | 4 (Herbicidal ratio of 70% or more and less than 90%) | 4 (Herbicidal ratio of 70% or more and less than 90%) | 0 (Herbicidal ratio of 5% or less (almost no effect))
Cc1nnc(NC(=O)c2ccc(C(F)(F)F)n3c(N4CCSCC4)nnc23)o1 [1-118] | 2 (Herbicidal ratio of 20% or more and less than 40%) | 0 (Herbicidal ratio of 5% or less (almost no effect)) | 3 (Herbicidal ratio of 40% or more and less than 70%) | 3 (Herbicidal ratio of 40% or more and less than 70%) | 5 (Herbicidal ratio of 90% or more (almost completely withered)) | 5 (Herbicidal ratio of 90% or more (almost completely withered)) | 3 (Herbicidal ratio of 40% or more and less than 70%)
Cc1nnc(NC(=O)c2ccc(C(F)(F)F)n3c(N4CC[S+]([O-])CC4)nnc23)o1 [1-119] | 4 (Herbicidal ratio of 70% or more and less than 90%) | 0 (Herbicidal ratio of 5% or less (almost no effect)) | 1 (Herbicidal ratio of 5% or more and less than 20%) | 2 (Herbicidal ratio of 20% or more and less than 40%) | 5 (Herbicidal ratio of 90% or more (almost completely withered)) | 5 (Herbicidal ratio of 90% or more (almost completely withered)) | 3 (Herbicidal ratio of 40% or more and less than 70%)
Cc1nnc(NC(=O)c2ccc(C(F)(F)F)n3c(N4CCS(=O)(=O)CC4)nnc23)o1 [1-120] | 3 (Herbicidal ratio of 40% or more and less than 70%) | 2 (Herbicidal ratio of 20% or more and less than 40%) | 3 (Herbicidal ratio of 40% or more and less than 70%) | 5 (Herbicidal ratio of 90% or more (almost completely withered)) | 5 (Herbicidal ratio of 90% or more (almost completely withered)) | 5 (Herbicidal ratio of 90% or more (almost completely withered)) | 3 (Herbicidal ratio of 40% or more and less than 70%)
COCCN(C)c1nnc2c(C(=O)Nc3nnco3)ccc(C(F)(F)F)n12 [1-121] | 4 (Herbicidal ratio of 70% or more and less than 90%) | 4 (Herbicidal ratio of 70% or more and less than 90%) | 4 (Herbicidal ratio of 70% or more and less than 90%) | 5 (Herbicidal ratio of 90% or more (almost completely withered)) | 5 (Herbicidal ratio of 90% or more (almost completely withered)) | 5 (Herbicidal ratio of 90% or more (almost completely withered)) | 3 (Herbicidal ratio of 40% or more and less than 70%)
CC(C)N(C)c1nnc2c(C(=O)Nc3nnco3)ccc(C(F)(F)F)n12 [1-122] | 4 (Herbicidal ratio of 70% or more and less than 90%) | 3 (Herbicidal ratio of 40% or more and less than 70%) | 3 (Herbicidal ratio of 40% or more and less than 70%) | 5 (Herbicidal ratio of 90% or more (almost completely withered)) | 5 (Herbicidal ratio of 90% or more (almost completely withered)) | 5 (Herbicidal ratio of 90% or more (almost completely withered)) | 3 (Herbicidal ratio of 40% or more and less than 70%)
CN(c1nnc2c(C(=O)Nc3nnco3)ccc(C(F)(F)F)n12)C1CCCCC1 [1-123] | 3 (Herbicidal ratio of 40% or more and less than 70%) | 3 (Herbicidal ratio of 40% or more and less than 70%) | 2 (Herbicidal ratio of 20% or more and less than 40%) | 4 (Herbicidal ratio of 70% or more and less than 90%) | 4 (Herbicidal ratio of 70% or more and less than 90%) | 4 (Herbicidal ratio of 70% or more and less than 90%) | 1 (Herbicidal ratio of 5% or more and less than 20%)
Cc1nnc(NC(=O)c2ccc(C(F)(F)F)n3c(SCC(F)(F)F)nnc23)o1 [1-124] | 3 (Herbicidal ratio of 40% or more and less than 70%) | 1 (Herbicidal ratio of 5% or more and less than 20%) | 3 (Herbicidal ratio of 40% or more and less than 70%) | 4 (Herbicidal ratio of 70% or more and less than 90%) | 4 (Herbicidal ratio of 70% or more and less than 90%) | 4 (Herbicidal ratio of 70% or more and less than 90%) | 0 (Herbicidal ratio of 5% or less (almost no effect))
CC(=O)CSc1nnc2c(C(=O)Nc3nnc(C)o3)ccc(C(F)(F)F)n12 [1-125] | 0 (Herbicidal ratio of 5% or less (almost no effect)) | 1 (Herbicidal ratio of 5% or more and less than 20%) | 2 (Herbicidal ratio of 20% or more and less than 40%) | 3 (Herbicidal ratio of 40% or more and less than 70%) | 5 (Herbicidal ratio of 90% or more (almost completely withered)) | 4 (Herbicidal ratio of 70% or more and less than 90%) | 1 (Herbicidal ratio of 5% or more and less than 20%)
